Experimental data published in US6040149A, “Assay for identifying agents which act on the ceramide-activated protein kinase, kinase suppressor of ras, and methods of using said agents” (priority 1997, dated 2000).

Assays:
[1] = tested on: EL-4 cells; experiment: Sphingomyelin and ceramide levels in intact EL-4 cells; format: cell-based, murine; conditions: maximally effective concentrations (n=5)
Method: IL-1β effects on sphingomyelin levels in EL4 cells. Time course (A) and dose response (B). Cells were grown to growth arrest (1-1.5×10^6 cells ml^-1) in DME/Ham's F12 medium (1:1, v/v) containing 10% horse serum and for 48 hours [^3 H]choline (1 μCi ml^-1). On the day of an experiment, cells were resuspended back into the same medium at 10×10^6 cells ml^-1 and stimulated with 40 ng ml^-1 IL-1β for the indicated times (A) or for 30 minutes with increasing concentrations of IL-1β (B). Human IL-1β may be obtained using methods well known to those skilled in the art. Reactions were terminated with CHCl3 :CH3 OH:HCl (100:100:1) containing 10 mM EDTA (82). Lipids in the organic phase extract were dried under N2 and subjected to mild alkaline hydrolysis (0.1 M methanolic KOH for 1 hour at 37° C.) to remove glycerophospholipids. Sphingomyelin was resolved by thin-layer chromatography (TLC) using CHCl3 :CH3 OH:CH3 COOH:H2 O (60:30:8:5) as solvent, identified by iodine vapor staining, and quantified by liquid scintillation spectrometry. As previously reported, the use of [^3 H]choline as a measure of sphingomyelin content was validated by simultaneous phospholipid phosphorus measurements. Each value represents the mean±SEM of triplicate determinations from four experiments in (A), and one representative of four similar studies performed in triplicate in (B).
Effect of IL-1β on ceramide levels in EL-4 cells. Cells were stimulated as in FIG. 12 with IL-1β (40 ng ml^-1) and ceramide contained within the organic phase extract quantified enzymatically using the E. coli diacylglycerol kinase reaction. Lipids were resolved by TLC using CHCl3 :CH3 OH:CH3 COOH (65/15/5) as solvent, autoradiographed and quantified by liquid scintillation spectrometry. Each value represents the mean±SEM of triplicate determinations from 10 experiments.
The murine thymoma EL-4 cell line is a well-defined IL-1 responsive cell line that expresses functional IL-1 receptors. Upon stimulation with IL-1, these cells up-regulate the IL-2 receptor and secrete IL-2 [62]. Initial studies were designed to investigate the effects of IL-1β on cellular sphingomyelin content. Cells, grown in Dulbecco's Modified Eagle's (DME)/Ham's F-12 medium containing 10% horse serum and [^3 H]choline (1 μCi ml^-1), were resuspended back into the same medium at 10×10^6 cells ml^-1 and stimulated with IL-1β. IL-1β is commercially available.

[2] = tested on: neutral sphingomyelinase; experiment: Sphingomyelin and ceramide concentrations in a cell-free system (HL-60 nuclei-free supernate); format: biochemical, human (HL-60 cells)
Method: TNF-α effects on sphingomyelin (A) and ceramide (B) concentrations in a cell-free system. HL-60 cells were grown in RPMI 1640 medium supplemented with 10% bovine calf serum and amino acids. To measure sphingomyelin, cells were resuspended (1×10^6 ml^-1), labeled for 48 hours in medium with [^3 H]choline (1 μCi ml^-1), in serum-free medium containing bovine insulin (5 μg ml^-1) and human transferrin (5 μg ml^-1). After 3 hours, cells were resuspended (150×10^6 ml^-1) in homogenization buffer (50 mM NaF, 5 mM EGTA, and 25 mM Hepes, pH 7.4), disrupted at 4° C. with 150 strokes of a tight-fitting Dounce homogenizer (Fisher Scientific, Pittsburgh, Pa.), and centrifuged for 5 minutes (500 g). The nuclei-free supernate was first incubated for 5 minutes at 4° C. with 30 nM human TNF-α (Genentech, South San Francisco, Calif.) or diluent (50 mM Hepes, pH 7.4). At time zero, 15 μl of supernate (112 μg per incubation) were added to a reaction mixture containing 30 μl of 25 mM Hepes, pH 7.4, 30 μl of 750 μM ATP, and 75 μl of reaction buffer (50 mM Hepes, pH 7.4 and 20 mM MgCl2) at 22° C. The reaction was terminated with CHCl3 :CH3 OH:HCl (100:100:1, v/v/v) and 150 μl of balanced salt solution (135 mM NaCl, 4.5 mM KCl, 1.5 mM CaCl2, 0.5 mM MgCl2, 5.6 mM glucose, and 10 mM Hepes, pH 7.2) containing 20 mM EDTA. Lipids in the organic phase extract were subjected to alkaline methanolysis to remove glycerophospholipids. Sphingomyelin recovery in the nuclei-free supernate was 93% of that in intact cells. A measure of 10^6 cell equivalents of supernate contained 50 μg of protein. Sphingomyelin was resolved by thin-layer chromatography (TLC) with CHCl3 :CH3 OH:CH3 COOH:H2 O (25:15:4:1.5) as solvent, identified by iodine vapor staining and quantified by liquid scintillation spectrometry. Ceramide was quantified with the diacylglycerol kinase reaction. Values (mean) are derived from triplicate determinations from one experiment representative of three similar studies for sphingomyelin and four similar studies for ceramide.
The binding of TNF-α to its receptor is detectable within 2 minutes and maximal by 5 to 10 minutes at 4° C. in membranes derived from HL-60 cells. Therefore, supernates from HL-60 cells, collected after a low-speed centrifugation to remove nuclei, were first incubated with TNF-α for 5 minutes at 4° C. to allow the formation of TNF-receptor complexes. Thereafter, reactions were initiated by warming supernates to 22° C. in a reaction mixture containing adenosine triphosphate (ATP) and Mg^2+ at pH 7.4.
These conditions were adopted to allow for activation of neutral sphingomyelinase. Under these conditions, TNF-α induced a time- and concentration-dependent reduction in sphingomyelin content (FIG. 9A). The effect of TNF-α was evident at 1 minute and maximal by 7.5 minutes. Sphingomyelin concentrations decreased 27% from a control concentration of 10.4±0.5 (mean±SEM) to 7.6±0.2 nmol per milligram (nmol mg^-1) of supernate protein (P<0.001). […] Concentrations of TNF-α of 300 pM were effective, with a maximal effect at 3 nM TNF-α [effective dose (ED50)≈500 pM]. Under the same conditions, ceramide increased quantitatively from 1.8±0.3 to 4.0±0.5 nmol mg^-1 (FIG. 9B). This effect was detectable at 1 minute (P<0.001) and maximal by 7.5 minutes. Thus, 2.8 nmol of sphingomyelin per milligram of supernate protein were lost for each 2.2 nmol of ceramide per milligram of supernate protein that was generated. […] Other choline-containing lipids, including phosphatidyl-choline, lysophosphatidylcholine, sphingosylphosphorylcholine, and 1,2-diacylglycerol were not affected by TNF-α.

In the case of `CCCCCCCCCCCCCC(=O)O[C@@H]1[C@@H](C)[C@@]2(O)[C@@H](C=C(CO)C[C@]3(O)C(=O)C(C)=C[C@@H]23)[C@@H]2C(C)(C)[C@]12OC(C)=O` [TPA, 12-0-tetradecanoylphorbol-13-acetate], the ceramide response [1] is reported as “failed to elicit a ceramide response”.
In the case of TNF-α, the “effect on other choline-containing lipids and 1,2-diacylglycerol” value ([2]; TNF-α) is reported as “not affected”, the “decrease in sphingomyelin concentration” value ([2]; TNF-α 30 nM, cell-free) is reported as 27% and the ceramide generated ([2]; TNF-α, cell-free) is reported as 2.2 nmol per milligram of supernat. For the same compound, the sphingomyelin lost ([2]; TNF-α, cell-free) was 2.8 nmol per milligram of supernat, the sphingomyelin concentration ([2]; after TNF-α, control 10.4±0.5, mean±SEM, P<0.001) was 7.6±0.2 nmol per milligram (nmol mg^-1) of supernate protein and the ceramide concentration ([2]; after TNF-α, from 1.8±0.3) was 4.0 ± 0.5 nmol/mg. For the same compound, the “ED50 (sphingomyelin reduction)” value ([2]; cell-free) was “≈ 500 pM”, the “concentration of maximal effect (sphingomyelin reduction)” value ([2]; cell-free) was 3 nM and the “effective concentration (sphingomyelin reduction)” value ([2]; cell-free) was 300 pM. The “onset of sphingomyelin reduction” value ([2]; cell-free) was 1 min, the “time to maximal ceramide increase” value ([2]; cell-free) was at most 7.5 min and the “time to maximal sphingomyelin reduction” value ([2]; cell-free) was at most 7.5 min. The “onset of ceramide increase” value ([2]; cell-free, P<0.001) was 1 min.
